This is an account of results in publication PMC4756849, “A novel high-throughput activity assay for the Trypanosoma brucei editosome enzyme REL1 and other RNA ligases” (Nucleic Acids Research, 2015).

Data set [1] deals with T1, Trypanosoma brucei REL1 (Trypanosoma brucei brucei, UniProt P86926).
T1 construct: made in house; host or cells: Escherichia coli BL21 (DE3), polycistronic pET-21d construct
As to the kind of experiment: biochemical. In kind it is biochemical. The procedure: Substrate RNAs were annealed in the presence of 25 mM KCl, 12.5 mM Tris–HCl pH 8.0, 5 mM Mg(OAc)2 and 0.25 mM DTT at a concentration of 1 μM in 10-ml batches by incubation at 70°C for 10 min, followed by slow cooling to room temperature. Annealed substrate was stored at −80°C. For 2400 assays, 2.4 μl 100 mM ATP were added to 12 ml pre-annealed substrate and 5 μl of the mixture dispensed into each well of a 384-well assay plate (Greiner 788075). A total of 50 nl of LOPAC (Sigma-Aldrich; 2 mM in DMSO) or Maybridge Hitfinder (Thermo Fisher Scientific; 2 mM in DMSO) compounds were added per well using a Biomek FX instrument. Recombinant REL1 was diluted in 10% (v/v) glycerol, 300 mM NaCl, 2 mM DTT and 20 mM Tris–HCl pH 6.0 to a final concentration of 300 ng/μl. One hundred twenty microliter REL1 solution were added to 11.88 ml ligation buffer (5 mM KCl; 12.5 mM Tris–HCl pH 6.0; 1 mM Mg(OAc)2; 0.25 mM DTT, 0.2% (w/v) Triton X-100; 0.003% (w/v) Brij 35) and 5 μl of the REL1/ligation buffer mix were added to each well to start the reaction ([…] REL1 per well). A total of 50 μM NSC-42067 served as positive control for inhibition ([34]). As additional controls, each plate included reactions without inhibitor and reactions without REL1. After 30 min incubation at room temperature the reaction was stopped by adding 12.5 μl STOP solution (9 M urea; 20 mM EDTA). After a minimum incubation period of 15 min plates were read using a ratiometric wavelength read (excitation at 485 nm, detection at 665 and 535 nm). HTS was carried out at The Scripps Research Institute, San Diego, CA, USA.
To validate the suitability of the FRET-based REL1 activity assay for HTS, the assay conditions were adapted to 384-well format to facilitate a pilot screen. An ATP concentration of 10 μM was chosen as a compromise between sensitivity to inhibition and robust S:B ratio.
Figure 5. […] Data were plotted as% inhibition compared to controls without inhibitor and fitted to a sigmoidal curve. […] All experiments were carried out under optimized conditions, and means and standard deviations for three replicates are shown.

Data set [2] has as its target T1, Trypanosoma brucei REL1. Put plainly: Non-denaturing PAGE of RNA ligation reaction by REL1. The following applies: increasing concentrations of compound, optimized conditions, Figure S4. The class given is biochemical. The procedure:
After ligation reaction, 20% (w/v) polyacrylamide gels were used to separate the RNA molecules by non-denaturing PAGE in Tris-borate-EDTA (TBE) buffer. For denaturing PAGE, gels contained 7 M urea. Gels were analyzed using a Typhoon FLA 7000 (GE Healthcare).
Figure S4. Non-denaturing PAGE showing inhibition of RNA ligation reaction by compound NSC42067. Lanes 1, 2 and 3 were loaded with the 16-nt 6-FAM 5’-RNA substrate, the 13-nt Cy5 3’- RNA substrate and a 29-nt dual 6-FAM/Cy5-labelled DNA oligo, respectively. Lane 4 was left empty.
Lanes 5 to 8 show products from standard reaction conditions and controls. Lanes 9 to 11 show the effects of increasing concentrations of NSC42067 in the assay. Ligation reactions were carried out under optimized conditions. The gel analysis confirmed the following:
Lanes 1 - 3: See Supplementary Figure S1.
Lanes 5 to 7: As before (compare Supplementary Figure S1), incubation of 5’- and 3’-RNAs with […]
The intensity of both bands increased with longer incubation time (compare lane 6 = 5 min with lane 7 = 30 min) and was dependent on the presence of REL1 (lane 5).
Figure S5. Structures of the hit compounds selected for validation.
Figure S6. Scatter plot showing the results of the second pilot screen. Compounds of the Maybridge library were incubated at 10 µM concentration in 384-well plates with REL1 (7.8 nM) in the presence […]
Stop buffer was added after 30 min. […]

The next data set concerns T. brucei gambiense. Further details: method as in PMID 14982785. The following applies: in vitro; cited from earlier work.
The subject of the next data set is human hemopoietic cells. The following applies: cited from earlier work.
Setting [3] is: single-shot HTS, 10 μM final compound concentration, 10 μM ATP, as suggested by HTS.
Setting [4] is: dose-response curves, HTS/optimized assay conditions, 10 μM ATP, influenced by unknown percentage of active protein.
[5] abbreviates: dose-response curves, HTS/optimized assay conditions, 10 μM ATP, influenced by unknown percentage of active protein, read-out: IC50.

pIC50: −log10 of the molar value. Structures can show the parent of a compound that is named as a salt. Where two headings read alike, the source gives them in different places. A value given as a limit tells only on which side of the number the result lay.

T1 sequence (P86926 51-469): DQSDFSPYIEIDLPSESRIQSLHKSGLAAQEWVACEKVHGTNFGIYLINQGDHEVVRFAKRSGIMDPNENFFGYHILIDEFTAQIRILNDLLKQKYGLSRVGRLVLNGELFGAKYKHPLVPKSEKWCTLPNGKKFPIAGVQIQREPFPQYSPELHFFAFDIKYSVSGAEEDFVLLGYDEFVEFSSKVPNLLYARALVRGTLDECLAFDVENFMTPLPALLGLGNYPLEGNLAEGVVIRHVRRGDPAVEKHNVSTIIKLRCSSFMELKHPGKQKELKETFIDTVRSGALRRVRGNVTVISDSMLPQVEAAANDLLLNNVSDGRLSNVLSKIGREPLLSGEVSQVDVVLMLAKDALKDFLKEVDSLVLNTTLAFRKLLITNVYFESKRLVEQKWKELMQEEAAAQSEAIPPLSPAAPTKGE

`C#CCN[C@H](C)Cc1ccccc1.Cl` [R-(–)-Desmethyldeprenyl hydrochloride]: the “Inhibition at 10 μM” value at Trypanosoma brucei REL1 [1] (setting [3]) stood at 38%.
In the case of `CC(C)N(CCC(=O)c1ccc2ccccc2c1)Cc1ccccc1.Cl` [ZM 39923 hydrochloride], the “Inhibition at 10 μM” value on Trypanosoma brucei REL1 [1] (setting [3]) is recorded as 26%.
The same measure, in the same setting: the figure for `NC(=O)c1cc[n+](CC2=C(C(=O)[O-])N3C(=O)[C@@H](NC(=O)[C@@H](c4ccccc4)S(=O)(=O)[O-])[C@H]3SC2)cc1.[Na+]` [Cefsulodin sodium salt hydrate] is 46%; for `O.O=c1c(O)c(-c2ccc(O)cc2O)oc2cc(O)cc(O)c12` [Morin hydrate] it is 17%.
Consider `OC[C@H]1O[C@H]([S-])[C@H](O)[C@@H](O)[C@@H]1O.[Au+]` [Aurothioglucose hydrate], for which the “IC50 (μM)” value on Trypanosoma brucei REL1 [1] (setting [4]) is reported as “low μM range”. Further, on Trypanosoma brucei REL1 [1] (setting [5]), the pIC50 was 4.92. Moreover, the “Inhibition at 10 μM” value on Trypanosoma brucei REL1 [1] (setting [3]) worked out at 93%.
Regarding `Cn1c(=O)c2[nH]c(-c3ccc(S(=O)(=O)O)cc3)nc2n(C)c1=O` [8-(p-Sulfophenyl)theophylline hydrate], at Trypanosoma brucei REL1 [1] (read-out: Inhibition at 10 μM), the Inhibition at 10 μM was 23%.
On to `CC1(C)CCC2=C(O1)c1ccccc1C(=O)C2=O` [β-Lapachone], for which the Inhibition at 10 μM at Trypanosoma brucei REL1 [1] (read-out: Inhibition at 10 μM) worked out at 48%.
`N.N.[Cl][Pt][Cl]` [cis-Diammineplatinum(II) dichloride]: the “Inhibition at 10 μM” value at Trypanosoma brucei REL1 [1] (setting [3]) is listed as 14%.
On to `Nc1nc(Cl)nc2c1ncn2[C@@H]1O[C@H](COP(=O)(O)OP(=O)(O)OP(=O)(O)O)[C@@H](O)[C@H]1O` [2-Chloroadenosine triphosphate tetrasodium hydrate], for which, on Trypanosoma brucei REL1 [1] (read-out: Inhibition at 10 μM), the Inhibition at 10 μM worked out at 18%.
Turning to `CN(N=O)c1ccc(O)c(O)c1` [Methyl-3,4-dephostatin], the pIC50 on Trypanosoma brucei REL1 [1] (setting [5]) was < 4.30. The “Inhibition at 10 μM” value at Trypanosoma brucei REL1 [1] (setting [3]) worked out at 97%. Besides, the “Inhibition in dose-response curve” value on Trypanosoma brucei REL1 [1] (up to 50 μM concentration) is “no significant inhibition”.
For the molecule `CSc1nc(N)c2ncn([C@@H]3O[C@H](COP(=O)(O)OP(=O)(O)O)[C@@H](O)[C@H]3O)c2n1` [2-(Methylthio)adenosine 5′-diphosphate trisodium salt hydrate], the Inhibition at 10 μM on Trypanosoma brucei REL1 [1] (read-out: Inhibition at 10 μM) was found to be 22%.
For the molecule `CC(=O)OCC1=C(C(=O)[O-])N2C(=O)[C@@H](NC(=O)CCC[C@@H](N)C(=O)[O-])[C@H]2SC1.[Zn+2]` [Cephalosporin C zinc salt], on Trypanosoma brucei REL1 [1] (setting [3]), the “Inhibition at 10 μM” value came to 21%.
Regarding `O=[N+]([O-])/C=C/c1ccc2c(c1)OCO2` [MNS], on Trypanosoma brucei REL1 [1] (setting [3]), the “Inhibition at 10 μM” value turned out to be 22%.
Consider `N#C/C(=C\c1ccc(O)c(O)c1)C(=O)NCCCNC(=O)/C(C#N)=C/c1ccc(O)c(O)c1` [Tyrphostin AG 537], for which, at Trypanosoma brucei REL1 [1] (setting [4]), the “IC50 (μM)” value is listed as “low μM range”. Besides, the pIC50 on Trypanosoma brucei REL1 [1] (setting [5]) was 6.60. Moreover, the “Inhibition at 10 μM” value on Trypanosoma brucei REL1 [1] (setting [3]) worked out at 93%.
Consider `CC(C)NC(C)Cc1ccc(I)cc1` (stereo not shown) [Iofetamine hydrochloride], for which the Inhibition at 10 μM at Trypanosoma brucei REL1 [1] (read-out: Inhibition at 10 μM) stood at 70%.
Turning to `O=C(O)c1cc(O)c(O)c(OC(=O)c2cc(O)c(O)c(O)c2CNc2ccc3cc(S(=O)(=O)O)cc(S(=O)(=O)O)c3c2)c1` [NSC42067], the pIC50 at Trypanosoma brucei REL1 [1] (setting [5]) was 5.85. Also, the “Effect on formation of the ligation product (gel)” value on Trypanosoma brucei REL1 [2] was “inhibit formation of the ligation product”.
For the molecule `O=c1c(O)c(-c2ccc(O)c(O)c2)oc2cc(O)cc(O)c12` [quercertin], the LD50 in the data set with T. brucei gambiense was 10 µM. Moreover, in the data set on human hemopoietic cells, the “Effect on human hemopoietic cells” value is on record as “without affecting human hemopoietic cells”.
As to `CC(=O)OC[C@H]1O[C@@H]([S-])[C@H](OC(C)=O)[C@@H](OC(C)=O)[C@@H]1OC(C)=O.CCP(CC)CC.[Au+]` [Auranofin], the “Inhibition at 10 μM” value at Trypanosoma brucei REL1 [1] (setting [3]) worked out at 24%.
Consider `Cc1ccc(C(=O)Nc2ccc(S(=O)(=O)O)c3cc(S(=O)(=O)O)cc(S(=O)(=O)O)c23)cc1NC(=O)c1cccc(NC(=O)Nc2cccc(C(=O)Nc3cc(C(=O)Nc4ccc(S(=O)(=O)O)c5cc(S(=O)(=O)O)cc(S(=O)(=O)O)c45)ccc3C)c2)c1` [Suramin sodium salt], for which, at Trypanosoma brucei REL1 [1], the pIC50 was 5.53. Also, on Trypanosoma brucei REL1 [1] (setting [4]), the “IC50 (μM)” value was “low μM range”. For the same molecule, the Inhibition at 10 μM on Trypanosoma brucei REL1 [1] (read-out: Inhibition at 10 μM) was 66%.
The molecule `O=c1c(O)c(-c2cc(O)c(O)c(O)c2)oc2cc(O)cc(O)c12` [Myricetin] had a pIC50 at Trypanosoma brucei REL1 [1] of 5.75. On Trypanosoma brucei REL1 [1] (setting [4]), the “IC50 (μM)” value is on record as “low μM range”. Further, the Inhibition at 10 μM on Trypanosoma brucei REL1 [1] (read-out: Inhibition at 10 μM) was found to be 100%.
As to `O=C(Nc1cccc(C(=O)Nc2ccc(S(=O)(=O)[O-])c3cc(S(=O)(=O)[O-])cc(S(=O)(=O)[O-])c23)c1)Nc1cccc(C(=O)Nc2ccc(S(=O)(=O)[O-])c3cc(S(=O)(=O)[O-])cc(S(=O)(=O)[O-])c23)c1.[Na+].[Na+].[Na+].[Na+].[Na+].[Na+]` [NF 023 hydrate], the “IC50 (μM)” value against Trypanosoma brucei REL1 [1] (setting [4]) was “low μM range”. For the same molecule, the pIC50 at Trypanosoma brucei REL1 [1] (setting [5]) is 5.71. Further, the “Inhibition at 10 μM” value on Trypanosoma brucei REL1 [1] (setting [3]) is 79%.
As for `O=C(O)/C(=C/c1c(C(=O)O)[nH]c2cc(Cl)cc(Cl)c12)c1ccccc1` [MDL 105,519], on Trypanosoma brucei REL1 [1] (setting [3]), the “Inhibition at 10 μM” value is reported as 18%.
As to `NC(N)=NOCC[C@H](N)C(=O)O` [L-Canavanine], the Inhibition at 10 μM on Trypanosoma brucei REL1 [1] (read-out: Inhibition at 10 μM) turned out to be 46%.
